This is an account of results in patent US10583119B2, “Compounds, compositions and methods for making the same” (Signum Biosciences, Inc., priority 2008, dated 2020).

Each structure is given as a SMILES string.

In assay [1] the test system is phosphorylated Tau. Nature of the assay: Phosphorylated tau in vivo, weekly up to 4 weeks (PHF1 Western blot of brain). On the set-up: species or system mice. The conditions noted are these: 0.1% by weight in feed, mouse brain. As for the experimental part:
Swiss Webster mice ([…]) were fed ad libitum, either standard rodent chow (Control), or rodent chow formulated with 0.1 g Compound I-63 per 100 g chow (0.1% Compound I-63); water was changed weekly. Mice were housed at 23° C., on a 12 hour light and dark cycle, with 6 mice per cage. At weekly intervals up to 4 weeks, three and six mice from the Control and 0.1% Compound I-63 groups respectively were sacrificed by cervical dislocation, brains removed, snap-frozen in liquid nitrogen, and were stored at −80° C. Brains were homogenized in 350 pi of buffer containing 20 mM MOPS-Na, pH 7.2, 1 mM EDTA/DTT, 0.5 mg/L of aprotinin, leupeptin and pepstatin, 100 nM okadaic acid, and clarified by centrifugation (14,000 rpm, 10 min, 4° C.). Supernatant protein concentrations were measured by the Bradford method, 4 volumes of the supernatant and 1 volume of 5×SDS sample buffer were mixed and boiled for 2 minutes. 40 pg of the boiled homogenate were loaded on 12% polyacrylamide gels, and transferred to nitrocellulose membranes. Membranes are blocked in 5% BSA+TBST for 1 hour at room temperature, and incubated overnight at 4° C. with the following primary antibodies at the indicated dilutions: PHF1 mAb (recognizes phospho-Serine 396/404) at 1:2000, Tau-5 (Millipore; pan-tau mAb) at 1:10,000, and anti-GAPDH (Sigma mAb; used as loading control) at 1:50,000. Protein bands were detected with the ECL Plus reagent (GE Healthcare) and blots were exposed to Kodak XOmat film. Densitometric analyses were performed with ImageJ software. For relative phospho-tau levels of the Compound I-63-treated animals, the ratio of GAPDH-normalized phospho-tau to GAPDH-normalized total tau was further normalized to the corresponding ratios for the control group of mice. Error bars represent the standard error of the means.
Background: In western blotting, separated proteins are transferred to a membrane and probed.

In assay [2] the test system is MPTP Mouse Model of Parkinson's Disease. Nature of the assay: MPTP-induced neurotoxicity in MPTP mouse model of Parkinson's disease (striatal tyrosine hydroxylase ELISA). Conditions: acute MPTP 10 mg/kg four times, striatum. Type of assay: in vivo, C57BL/6J mice. The text has this: MPTP (1-methyl-4-phenyl-1,2,3,6-tetrahydropyridine) is routinely used as a chemical agent that induces Parkinson's disease-like neurodegeneration in cellular and animal models. Both Parkinson's Disease and MPTP-induced neurotoxicity are associated with a number of different biomarkers including reduction of tyrosine hydroxylase levels and activity. Tyrosine hydroxylase is a key enzyme in the dopamine biosynthesis pathway as it is involved in the conversion of tyrosine to […]. Tyrosine hydroxylase activity is regulated by its phosphorylation status and PP2A is known to be involved in this regulation.
C57BL/6J mice, aged 2-3 months were fed ad libitum, either standard rodent chow (Control), or rodent chow formulated with 0.1 g Compound I-63, or 0.001 g Compound I-63 per 100 g chow (0.1% and 0.001% Compound I-63, respectively); water was changed weekly. Mice were housed at 23° C., on a 12 hour light and dark cycle, with 6 mice per cage. After 2 weeks, 8-12 mice each from the Control, 0.1% Compound 1-63 and 0.001% Compound I-63 groups were injected with either saline, or 10 mg/kg MPTP i.e., four times, every 2 hours, on the same day. Mice were then maintained on their respective feeds for another week, at which point they were sacrificed by cervical dislocation and brains dissected for biochemical analyses.
Striatal tyrosine hydroxylase (TH) content was measured by ELISA as follows. Ninety-six well microliter plates (Thermo Labsystems) were incubated overnight at 4° C. with monoclonal anti-TH antibody (1:500; Calbiochem) in 8 mM sodium phosphate, 2 mM potassium phosphate, and 0.14 M sodium chloride, pH 7.4 (PBS). Wells were washed four times with PBS and then blocked for 1 hour using 5% (w/v) Carnation (Nestle) nonfat dry milk in PBS. Striatal tissue samples were homogenized by sonication in PBS-0.5% Triton X-100 (PBST) with 0.25% (w/v) SDS. […] The reaction product was measured fluorometrically within the linear range of detection (excitation:emission ratio of 530:580 nm). […] Data were expressed as percent TH levels in MPTP-treated mice relative to saline-injected mice. […]
For orientation: ELISA stands for enzyme-linked immunosorbent assay.

As for `CCCCCCCCCCCCCCCCCCCC(=O)NCCc1c[nH]c2ccc(O)cc12` [Compound I-63, N-(2-(5-hydroxy-1H-indol-3-yl)ethyl)icosanamide], the “reduction in phosphorylation of tau compared to control” value in assay [1] (four weeks) is no less than 70%; in assay [1] (three weeks) it was greater than 50%; in assay [1] (two weeks), less than 40%. In addition, the “rescuing of the tyrosine hydroxylase defect” value in assay [2] (0.001% diet) and in assay [2] (0.1% diet) was “approximately 20%” each time.
